The source of these data is patent publication US20240368131A1, “OXOINDOLINYL AMIDE DERIVATIVES FOR INHIBITING NLRP3 AND USES THEREOF” (VENTUS THERAPEUTICS U.S. INC., priority 2022, published 2024).

Chain of human NLRP3 (Q96P20 whole entry): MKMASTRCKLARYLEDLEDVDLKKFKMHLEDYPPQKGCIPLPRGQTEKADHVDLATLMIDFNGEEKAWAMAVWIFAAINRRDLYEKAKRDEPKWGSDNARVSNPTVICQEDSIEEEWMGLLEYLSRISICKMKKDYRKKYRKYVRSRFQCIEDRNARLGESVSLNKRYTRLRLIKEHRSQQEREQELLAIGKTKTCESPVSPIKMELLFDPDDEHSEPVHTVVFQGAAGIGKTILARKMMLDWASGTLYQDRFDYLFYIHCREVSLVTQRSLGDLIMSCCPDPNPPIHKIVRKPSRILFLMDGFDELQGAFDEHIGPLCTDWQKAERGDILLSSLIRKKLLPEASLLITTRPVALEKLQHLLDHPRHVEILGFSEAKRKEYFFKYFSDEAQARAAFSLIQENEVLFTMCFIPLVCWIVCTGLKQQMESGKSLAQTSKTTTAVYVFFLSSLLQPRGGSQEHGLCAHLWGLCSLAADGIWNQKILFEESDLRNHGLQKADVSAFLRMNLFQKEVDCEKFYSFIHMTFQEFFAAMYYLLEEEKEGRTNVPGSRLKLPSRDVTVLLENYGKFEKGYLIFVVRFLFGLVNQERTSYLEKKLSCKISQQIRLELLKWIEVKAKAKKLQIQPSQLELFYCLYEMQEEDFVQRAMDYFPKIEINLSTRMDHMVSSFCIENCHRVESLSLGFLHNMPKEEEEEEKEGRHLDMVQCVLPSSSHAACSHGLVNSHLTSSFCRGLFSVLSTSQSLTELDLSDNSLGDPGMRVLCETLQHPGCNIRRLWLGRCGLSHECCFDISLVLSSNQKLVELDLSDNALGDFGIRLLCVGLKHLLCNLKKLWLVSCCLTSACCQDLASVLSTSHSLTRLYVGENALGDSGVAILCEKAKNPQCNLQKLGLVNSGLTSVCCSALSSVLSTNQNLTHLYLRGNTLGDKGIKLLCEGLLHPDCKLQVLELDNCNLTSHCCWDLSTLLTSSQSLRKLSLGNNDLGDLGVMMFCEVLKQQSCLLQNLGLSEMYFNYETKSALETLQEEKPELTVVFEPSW

This assay has as its target human NLRP3 (Homo sapiens, UniProt Q96P20). Description: Human Whole Blood (hWB) NLRP3 Assay (IL-1β MSD). The format is cell-based. The conditions noted are these: LPS 1 μg/ml 4.5 h, ATP 30 min, class symbols. How it is done:
Human whole blood was drawn from healthy volunteers after obtaining written informed consent. Heparin lithium coated tubes were used to collect blood from volunteers. Blood samples were distributed on 96 well plates using 90 μl per well. Priming was performed by adding 5 μl of LPS (O26:B6; Sigma L-2654) at a final concentration of 1 μg/ml for 4.5 hours in a humidified incubator with 37° C., 5% CO2. Thirty minutes prior to NLRP3 activation, 5 μl of a 20× compound solution or vehicle (2% DMSO) was added to each well and plates were incubated on a shaker (450 rpm) in a humidified incubator with 37° C., 5% CO2. Activation was then performed by adding 3.3 μl of a 31× ATP solution per well. At the end of the 30 minutes stimulation, the plates were centrifuged (800 g, 10 min, room temperature) and the plasma from each well was frozen at −80° C. IL-1β levels in the supernatant were analyzed using a mesoscale discovery assay (MSD K151TUK) according to the manufacturers' instructions.
hWB IL-1β Assay: A represents an IC50 value <0.3 μM; B represents an IC50 value ≥0.3 μM and <0.5 μM; C represents an IC50 value ≥0.5 μM and <1.0 μM; D represents an IC50 value >1.0 μM.
Consider `C[C@H](NC(=O)CN1C(=O)C(C)(C)c2c(F)c(C(F)(F)F)cc(F)c21)[C@@H](C)CC(=O)O` (single isomer, unassigned) [67C*], for which the IC50 (in general, the concentration that inhibits the measured activity by half) was above 1000 nM.
Molecule `C[C@H](CC(=O)O)[C@@H](C)NC(=O)CN1C(=O)C(C)(C)c2c(F)c(C(F)(F)F)cc(F)c21` (single isomer, unassigned) [67D*] came in with an IC50 of 300 to 500 nM.
Take `CC1(C)C(=O)N(CC(=O)NCCCC(=O)O)c2ccc(Cl)cc21` [Compound 4, 4-(2-(5-chloro-3,3-dimethyl-2-oxoindolin-1-yl)acetamido)butanoic acid]: the IC50 was above 1000 nM.
The value for `CC1(C)C(=O)N(CC(=O)NCCCc2nnn[nH]2)c2c(O)cc(C3CC3)cc21` [Compound 29, N-(3-(1H-tetrazol-5-yl)propyl)-2-(5-cyclopropyl-7-hydroxy-3,3-dimethyl-2-oxoindolin-1-yl)acetamide] was above 1000 nM; that for `CC(C)(CCc1nnn[nH]1)NC(=O)CN1C(=O)C(C)(C)c2cc(Br)cc(O)c21` [Compound 32, 2-(5-bromo-7-hydroxy-3,3-dimethyl-2-oxoindolin-1-yl)-N-(2-methyl-4-(1H-tetrazol-5-yl)butan-2-yl)acetamide] was above 1000 nM; that for `CC1(C)C(=O)N(CC(=O)NCCCC(=O)O)c2c(O)cc(Cl)cc21` [Compound 47, 4-(2-(5-chloro-7-hydroxy-3,3-dimethyl-2-oxoindolin-1-yl)acetamido)butanoic acid] was 300 to 500 nM.
The same measure for `C[C@H](CNC(=O)CN1C(=O)C(C)(C)c2c(F)c(C3CC3)cc(F)c21)CC(=O)O` [Compound 61B, (S)-4-(2-(5-cyclopropyl-4,7-difluoro-3,3-dimethyl-2-oxoindolin-1-yl)acetamido)-3-methylbutanoic acid]: 500 to 1000 nM.
